Columns and labels:
L6 myotubes [1] = assay: Protein degradation assay ([3H]Tyr release) in dexamethasone-treated myotubes; format: cell-based, rat; conditions: pre-incubation HMB 25 µM or Leu 10 mM 48 hours, then 48 hours with dexamethasone 5 µM
Experimental: (§1) Cell culture. The L6.C11 rat skeletal muscle myoblast line (ECACC No. 92102119) was grown in DMEM containing 10% (v/v) FCS, 2 mmol/l Glutamine plus 100 units/ml penicillin and 0.1 mg/ml streptomycin (Sigma) in an atmosphere of air/CO2 (95:5) and maintained at subconfluent densities in growth media. Cells were differentiated to myotubes by exchanging the growth medium for a differentiation medium consisting of DMEM containing 2% (v/v) FCS for 3-4 days (>50% fusion into multinucleated myotubes).
(§2) Protein synthesis and degradation assays. […] At the completion of the labeling period, cultures were rinsed three times with PBS, cells were lysed with sodium desoxycholate 0.1%/NaOH 0.1 M and protein was precipitated with cold 10% TCA in PBS overnight, rinsed once with cold 10% TCA, solubilized in NaOH 0.5 M, neutralized with HCl 0.5 M and mixed with scintillation fluid, and radioactivity was determined using a scintillation counter. […] Degradation rates were determined according to Hong & Forsberg, 1995.
To study the effects of HMB and Leu on protein degradation induced by dexamethasone, L6 differentiated myotubes were first differentiated to myotubes for 3 days in 2% FBS, and then the medium was changed to 10% FBS for the remainder of the experiment. […] After the incubation, protein degradation for each condition was calculated. […] Results are expressed as mean ± SEM of six independent experiments.

L6 myotubes [2] = assay: Protein synthesis assay ([3H]Tyr incorporation) in dexamethasone-treated myotubes; format: cell-based, rat; conditions: HMB 25 µM or Leu 10 mM, 2 hours plus 1 hour labeling, dexamethasone 5 µM
Experimental: as §1, §2
Particularly, L6 myotubes were treated with HMB (25 µM) or Leu (10 mM) for 2 hours in the presence or absence of dexamethasone (5 µM). […] After the incubation, protein synthesis for each condition was calculated. […] Results are expressed as means ± SEM of six independent experiments.

PKB/Akt = assay: Western blot of phospho-PKB/Akt vs total PKB/Akt in L6 myotubes; format: cell-based, rat; conditions: basal, without dexamethasone; HMB 25 µM or Leu 10 mM, 30 minutes
Experimental: (§3) Protein phosphorylation analysis. L6 myotubes were incubated with HMB or Leu in the absence or presence of dexamethasone for 30 minutes. After treatment, plates were flash frozen in liquid nitrogen and were scraped with 50 µl/60 mm/plate of cold 30 mmol/L Tris-HCl pH 7.4, 25 mmol/L NaCl, 1% (v/v) Triton X-100, 0.1% SDS, 10 mmol/L sodium fluoride, 10 mmol/L sodium pyrophosphate, 1 mmol/L sodium orthovanadate, 1 mmol/L EGTA, 20 nmol/L okadaic acid, 10 µg/ml aprotinin, 10 µg/ml leupeptin, 10 µg/ml pepstatin. After 10 minutes on ice, extracts were centrifuged at 13000 g for 10 minutes at 4°C. Protein concentration from the supernatants was measured using the Bio-Rad Protein Assay. […]
(§4) L6 Myoblasts were differentiated to myotubes for 3 days in 2% FBS. […] Cells were lysed in phosphorylation buffer and analyzed by Western blot using an anti-phospho PKB/Akt antibody (FIG. 3A), anti-phospho mTOR antibody (FIG. 3B), or anti-atrogin-1 antibody (FIG. 3C). […] The lower panels of each of FIGS. 3A-3C show densitometric quantification of: phospho-PKB/total PKB protein abundance (FIG. 3A); phospho-mTOR/total mTOR protein abundance (FIG. 3B); or atrogin-1 protein abundance using Histone H3 (FIG. 3C) as a reference control. Results are expressed as means ± SEM of four independent experiments.

mTOR = assay: Western blot of phospho-mTOR vs total mTOR in L6 myotubes; format: cell-based, rat; conditions: basal, without dexamethasone; HMB 25 µM or Leu 10 mM, 30 minutes
Experimental: as §3, §4

FOXO = assay: FOXO-responsive luciferase reporter assay in L6 cells; format: cell-based, rat
From the text: (§5) Reporter gene constructs. For the analysis of rat Ubiquitin (UbC) promoter, a 417 bp fragment of 417 bp flanking the transcription start point was amplified from rat genomic DNA. This fragment was similar to those that have been characterized for the human and rat promoters. The sequences of all constructs were verified by automated DNA sequencing. The Cignal FOXO Reporter (luc) kit, CCS-1022L, was provided by SABiosciences and contains a mixture of inducible FOXO-responsive firefly luciferase construct and constitutively expressing Renilla luciferase construct (40:1).
(§6) DNA transfection assays. For transfection experiments, cells were used at 80-90% confluence. […] Luciferase activity was determined using standard reagents (Dual Luciferase method, Promega) in a luminometer (Sirius L, Berthold Technologies, Bad Wildbad, Germany) and results were standardized for Renilla luciferase activity. […] To allow comparison of the expression patterns, the data were expressed as relative changes in luciferase activity and were normalized to a value of 100%.
To address whether the down-regulation of atrogin-1 in HMB- pretreated cells was accompanied by an underlying regulation of the FOXO transcription factor, the total FOXO expression (monitored by using FOXO-luciferase reporter gene activity) and the amount FOXO3a transcription factor in the nucleus were analyzed. […]

FOXO3a = assay: Western blot of FOXO3a in nuclear extracts of L6 cells (Histone H3 reference); format: cell-based, rat
Experimental: Preparation of nuclear extracts. Nuclear extracts from L6 cells were prepared following Bhavsar et al. Protein concentration was measured in nuclear extracts using the Bio-Rad Protein Assay kit. Aliquots of the extracts (40 µg) were resolved by 10% SDS-PAGE and analyzed by immunoblotting using a 1:1000 dilution of polyclonal anti-FOXO3a or anti-Histone H3 antibodies. The antigen-antibody complexes were detected with HRP-conjugated secondary antibodies using a chemiluminescence detection system (Bio-Rad).
To address whether the down-regulation of atrogin-1 in HMB- pretreated cells was accompanied by an underlying regulation of the FOXO transcription factor, the total FOXO expression (monitored by using FOXO-luciferase reporter gene activity) and the amount FOXO3a transcription factor in the nucleus were analyzed. L6 Myoblasts were differentiated to myotubes for 3 days in 2% FBS. After the differentiation process, medium was changed to 10% FBS for the remainder of the experiment. Myotubes were incubated in the presence or absence of HMB (25 µM) or Leu (10 mM) for 48 hours. […]
Further, L6 untransfected cells were treated as above, nuclear extracts were obtained as described in the material and methods section and analyzed by Western blot using an anti-FOXO3 antibody. […] Results are expressed as means ± SEM of four independent experiments.

ERK1/2 = assay: Western blot of phospho-ERK1/2 vs total ERK1/2 in L6 myotubes; format: cell-based, rat; conditions: HMB 25 µM or Leu 10 mM, 30 minutes
Experimental: Protein phosphorylation analysis. L6 myotubes were incubated with HMB or Leu in the absence or presence of dexamethasone for 30 minutes. After treatment, plates were flash frozen in liquid nitrogen and were scraped with 50 µl/60 mm/plate of cold 30 mmol/L Tris-HCl pH 7.4, 25 mmol/L NaCl, 1% (v/v) Triton X-100, 0.1% SDS, 10 mmol/L sodium fluoride, 10 mmol/L sodium pyrophosphate, 1 mmol/L sodium orthovanadate, 1 mmol/L EGTA, 20 nmol/L okadaic acid, 10 µg/ml aprotinin, 10 µg/ml leupeptin, 10 µg/ml pepstatin. After 10 minutes on ice, extracts were centrifuged at 13000 g for 10 minutes at 4°C. Protein concentration from the supernatants was measured using the Bio-Rad Protein Assay. Proteins (25-40 µg) were separated by SDS-PAGE and immunoblotted with selected antibodies; the immunoblots were developed by chemiluminescence detection.
Taking into account that phosphorylation of FOXO3a by ERK is a required step for FOXO3a ubiquitination and subsequent proteosomal degradation of this transcription factor in the cytoplasm, the effect of HMB and Leu on ERK activation was also analyzed. Specifically, L6 Myoblasts were differentiated to myotubes for 3 days in 2% FBS. […] Cells were lysed in phosphorylation buffer and analyzed by Western blot using an anti-phospho ERK1/2 antibody. […] Results are expressed as means ± SEM of four independent experiments.

UbC promoter = assay: pGL3-UbC luciferase reporter assay in L6 myotubes; format: cell-based, rat; conditions: pre-treatment HMB 25 µM or Leu 10 mM 48 hours, then dexamethasone 5 µM 48 hours
From the text: as §5, §6
Additionally, the effect of HMB and Leu on UbC promoter implicated in protein degradation induced by dexamethasone was analyzed. […] Results are expressed as means ± SEM of six independent experiments.

atrogin-1 = assay: cells; format: cell-based; conditions: Rattus norvegicus, L6, 48 h, read-out: increase in amount of atrogin-1
Experimental: Atrogin-1 analysis. L6 myotubes were pre-incubated with HMB 25 µM or Leu 10 mM for 48 hours. Then, dexamethasone 5 µM was added for another 48 hours. After treatment, cells were lysed with RIPA buffer (Sigma) supplemented with inhibitor protease cocktail (Sigma). Lysates were sonicated and protein concentration was measured using the Bio-Rad Protein Assay. Proteins (40 µg) were separated by SDS-PAGE and immunoblotted with anti-atrogin antibody.
L6 Myoblasts were differentiated to myotubes for 3 days in 2% FBS. Cells were deprived of FBS for 12 hours and incubated with HMB (25 µM) or Leu (10 mM) and insulin (100 nmol/l) in the absence or presence of dexamethasone (5 µM) for 30 minutes. Cells were lysed in phosphorylation buffer and analyzed by Western blot using an anti-phospho PKB/Akt antibody (FIG. 3A), anti-phospho mTOR antibody (FIG. 3B), or anti-atrogin-1 antibody (FIG. 3C). As a loading control, results were normalized using an anti-total PKB/Akt antibody, anti-total mTOR antibody, or an anti-Histone H3 antibody (see FIGS. 3A-3C, respectively). […] The lower panels of each of FIGS. 3A-3C show densitometric quantification of: phospho-PKB/total PKB protein abundance (FIG. 3A); phospho-mTOR/total mTOR protein abundance (FIG. 3B); or atrogin-1 protein abundance using Histone H3 (FIG. 3C) as a reference control. Results are expressed as means ± SEM of four independent experiments.

[3] = basal conditions, absence of dexamethasone, HMB 25 µM or Leu 10 mM
[4] = pre-treatment HMB 25 µM or Leu 10 mM 48 hours, then dexamethasone 5 µM 12 hours

CC(C)(O)CC(=O)O [HMB, beta-hydroxy-beta-methylbutyrate]
inhibition at 25 µM (L6 myotubes [1]; Rattus norvegicus, L6, read-out: decrease of proteolysis induced by dexamethasone): ~60%

CC(C)C[C@H](N)C(=O)O [Leu, Leucine]
decrease of proteolysis induced by dexamethasone (L6 myotubes [1]): did not significantly affect glucocorticoid-induced protein degradation
prevention of the decrease in protein synthesis induced by dexamethasone (L6 myotubes [2]): but not Leu
phosphorylative state of Akt (PKB/Akt): did not have influence on the phosporylative state of Akt and mTOR
phosphorylative state of mTOR (mTOR): did not have influence on the phosporylative state of Akt and mTOR
FOXO basal activity (FOXO; [3]): neither HMB nor Leu were able to significantly change FOXO basal activity or amount
FOXO overexpression induced by dexamethasone (reporter activity) (FOXO; [4]): did not have any effect on the dexamethasone-increased FOXO expression and amount
FOXO basal amount (nuclear FOXO3a) (FOXO3a; [3]): neither HMB nor Leu were able to significantly change FOXO basal activity or amount
FOXO3a nuclear translocation induced by dexamethasone (FOXO3a; [4]): did not have any effect on the dexamethasone-increased FOXO expression and amount
ERK activation (phospho-ERK/total ERK) (ERK1/2; atrophic conditions (dexamethasone 5 µM)): induced an activation of ERK kinase either at basal or at atrophic conditions
ERK activation (phospho-ERK/total ERK) (ERK1/2; basal conditions): induced an activation of ERK kinase either at basal or at atrophic conditions
counteraction of the effects of dexamethasone on Ub-C promoter activity (UbC promoter): only HMB was able to significantly counteract the effects of dexamethasone on Ub-C promoter activity

C[C@@H]1C[C@H]2[C@@H]3CCC4=CC(=O)C=C[C@]4(C)[C@@]3(F)[C@@H](O)C[C@]2(C)[C@@]1(O)C(=O)CO [dexamethasone]
fold induction at 5 µM (atrogin-1): > 4

From patent EP2647374A1, “Nutritional compositions including beta-hydroxy-beta-methylbutyrate for regulating transcription factors” (Abbott Laboratories, Inc., priority 2012, dated 2013)
